Reference: US8449898B2 (priority 2007, dated 2013)
Like-named read-outs stand apart in the source and are kept apart here.

Legend:
[1] = test system: Pseudoperonospora cubensis (the causal agent of cucumber downy mildew); assay: Test B: cucumber downy mildew, preventive spray on cucumber seedlings; format: in vivo; settings: for CDM Obsd (disease control rating): Table B
[2] = test system: Phytophthora infestans (the causal agent of tomato late blight); assay: whole plant or invertebrate; format: in vivo; settings: for pest or weed control at 0.4 ppm / pest or weed control at 2 ppm / pest or weed control at 10 ppm / pest or weed control at 40 ppm / pest or weed control at 200 ppm / pest or weed control at 0.04 ppm / pest or weed control at 0.001 ppm / pest or weed control at 0.01 ppm / pest or weed control at 0.1 ppm: Phytophthora infestans; for pest or weed control at 0.04 ppm: read-out: TLB Obsd, component (b) alone, 0.04 ppm; for TLB Obsd (disease control rating): Table B
[3] = Pseudoperonospora cubensis, component (b) alone, read-out: CDM Obsd
[4] = Pseudoperonospora cubensis, component (b) alone, 2 ppm, read-out: CDM Obsd
[5] = Pseudoperonospora cubensis, component (b) alone, 10 ppm, read-out: CDM Obsd
[6] = Pseudoperonospora cubensis, component (b) alone, 40 ppm, read-out: CDM Obsd
[7] = Pseudoperonospora cubensis, component (b) alone, 200 ppm, read-out: CDM Obsd
[8] = read-out: TLB Obsd, component (b) alone, 2 ppm
[9] = read-out: TLB Obsd, component (b) alone, 10 ppm
[10] = read-out: TLB Obsd, component (b) alone, 40 ppm
[11] = read-out: TLB Obsd, component (b) alone, 200 ppm
[12] = Table D, component (b) alone at 2 ppm
[13] = Table D, component (b) alone at 10 ppm
[14] = Table D, component (b) alone at 40 ppm
[15] = Table D, component (b) alone at 200 ppm
[16] = Table D, component (b) alone at 500 ppm
[17] = component (b) alone 2 ppm (Compound 1 0 ppm)
[18] = component (b) alone 10 ppm (Compound 1 0 ppm)
[19] = component (b) alone 40 ppm (Compound 1 0 ppm)
[20] = Pseudoperonospora cubensis, Compound 214 alone, read-out: CDM Obsd
[21] = Pseudoperonospora cubensis, Compound 214 alone, read-out: CDM Obsd (observed effect, cucumber downy mildew)

C[C@@]1(c2ccc(Oc3ccccc3)cc2)OC(=O)N(Nc2ccccc2)C1=O (racemic) [famoxadone]
pest or weed control at 0.4 ppm ([1]; Pseudoperonospora cubensis, Table C, component (b) alone 0.4 ppm, read-out: CDM Obsd (disease control rating)): 47%
pest or weed control at 2 ppm ([1]; Pseudoperonospora cubensis, Table C, component (b) alone 2 ppm, read-out: CDM Obsd (disease control rating)): 63%
pest or weed control at 10 ppm ([1]; Pseudoperonospora cubensis, Table C, component (b) alone 10 ppm, read-out: CDM Obsd (disease control rating)): 95%
pest or weed control at 40 ppm ([1]; Pseudoperonospora cubensis, Table C, component (b) alone 40 ppm, read-out: CDM Obsd (disease control rating)): 100%
pest or weed control at 200 ppm ([1]; Pseudoperonospora cubensis, Table C, component (b) alone 200 ppm, read-out: CDM Obsd (disease control rating)): 100%
pest or weed control at 0.4 µg/mL ([1]; Pseudoperonospora cubensis, component (b) alone 0.4 ppm (Compound 1 0 ppm), read-out: CDM Obsd): 47%
pest or weed control at 2 µg/mL ([1]; Pseudoperonospora cubensis, component (b) alone 2 ppm (Compound 1 0 ppm), read-out: CDM Obsd): 58%
pest or weed control at 10 µg/mL ([1]; Pseudoperonospora cubensis, component (b) alone 10 ppm (Compound 1 0 ppm), read-out: CDM Obsd): 87%
pest or weed control at 40 µg/mL ([1]; Pseudoperonospora cubensis, component (b) alone 40 ppm (Compound 1 0 ppm), read-out: CDM Obsd): 100%
pest or weed control at 200 µg/mL ([1]; Pseudoperonospora cubensis, component (b) alone 200 ppm (Compound 1 0 ppm), read-out: CDM Obsd): 100%
pest or weed control at 0.04 ppm [1, 3]: 100%
pest or weed control at 2 ppm [1, 4]: 21%
pest or weed control at 10 ppm [1, 5]: 72%
pest or weed control at 40 ppm [1, 6]: 100%
pest or weed control at 200 ppm [1, 7]: 100%
pest or weed control at 0.4 ppm ([2]; read-out: TLB Obsd (disease control rating), Table C, component (b) alone 0.4 ppm): 17%
pest or weed control at 2 ppm ([2]; read-out: TLB Obsd (disease control rating), Table C, component (b) alone 2 ppm): 26%
pest or weed control at 10 ppm ([2]; read-out: TLB Obsd (disease control rating), Table C, component (b) alone 10 ppm): 67%
pest or weed control at 40 ppm ([2]; read-out: TLB Obsd (disease control rating), Table C, component (b) alone 40 ppm): 53%
pest or weed control at 200 ppm ([2]; read-out: TLB Obsd (disease control rating), Table C, component (b) alone 200 ppm): 66%
pest or weed control at 0.04 ppm [2]: 100%
pest or weed control at 2 ppm [2, 8]: 32%
pest or weed control at 10 ppm [2, 9]: 93%
pest or weed control at 40 ppm [2, 10]: 98%
pest or weed control at 200 ppm [2, 11]: 100%

CC1CCN(c2c(-c3c(F)cc(F)cc3F)c(Cl)nc3ncnn23)CC1 [BAS600, 5-chloro-6-(2,4,6-trifluorophenyl)-7-(4-methylpiperidin-1-yl)[1,2,4]triazolo[1,5-α]pyrimidine]
CDM Obsd [1, 12]: 47%
CDM Obsd [1, 13]: 99%
CDM Obsd [1, 14]: 100%
CDM Obsd [1, 15]: 100%
CDM Obsd [1, 16]: 100%
CDM Obsd [1, 17]: 0%
CDM Obsd [1, 18]: 72%
CDM Obsd [1, 19]: 100%
CDM Obsd ([1]; component (b) alone 200 ppm (Compound 1 0 ppm)): 100%
CDM Obsd ([1]; component (b) alone, 2 ppm): 0%
CDM Obsd ([1]; component (b) alone, 10 ppm): 99%
CDM Obsd ([1]; component (b) alone, 40 ppm): 100%
CDM Obsd ([1]; component (b) alone, 200 ppm): 100%
CDM Obsd ([1]; component (b) alone, 500 ppm): 100%
TLB Obsd [2, 12]: 26%
TLB Obsd [2, 13]: 6%
TLB Obsd [2, 14]: 56%
TLB Obsd [2, 15]: 20%
TLB Obsd [2, 16]: 12%
TLB Obsd ([2]; component (b) alone, 2 ppm): 7%
TLB Obsd ([2]; component (b) alone, 10 ppm): 0%
TLB Obsd ([2]; component (b) alone, 40 ppm): 15%
TLB Obsd ([2]; component (b) alone, 200 ppm): 30%
TLB Obsd ([2]; component (b) alone, 500 ppm): 15%

Cc1cc(C(F)(F)F)nn1CC(=O)N1CCC(c2nc(C3=NO[C@@H](c4c(F)cccc4F)C3)cs2)CC1 [Compound 214, 1-[4-[4-[(5R)-5-(2,6-difluorophenyl)-4,5-dihydro-3-isoxazolyl]-2-thiazolyl]-1-piperidinyl]-2-[5-methyl-3-(trifluoromethyl)-1H-pyrazol-1-yl]ethanone]
pest or weed control at 0.001 ppm ([1]; Pseudoperonospora cubensis, Compound 214 alone, 0.001 ppm, read-out: CDM Obsd (observed effect, cucumber downy mildew)): 16%
pest or weed control at 0.01 ppm [1, 20]: 88%
pest or weed control at 0.01 ppm [1, 21]: 83%
pest or weed control at 0.1 ppm [1, 20]: 100%
pest or weed control at 0.1 ppm [1, 21]: 100%
pest or weed control at 0.001 ppm ([2]; read-out: TLB Obsd (observed effect, tomato late blight), Compound 214 alone, 0.001 ppm): 44%
pest or weed control at 0.01 ppm ([2]; read-out: TLB Obsd (observed effect, tomato late blight), Compound 214 alone, 0.01 ppm): 98%
pest or weed control at 0.1 ppm ([2]; read-out: TLB Obsd (observed effect, tomato late blight), Compound 214 alone, 0.1 ppm): 100%
pest or weed control at 0.001 ppm ([2]; read-out: TLB Obsd, Compound 214 alone, 0.001 ppm): 22%
pest or weed control at 0.01 ppm ([2]; read-out: TLB Obsd, Compound 214 alone, 0.01 ppm): 98%
pest or weed control at 0.1 ppm ([2]; read-out: TLB Obsd, Compound 214 alone, 0.1 ppm): 100%

CO/C=C(/C(=O)OC)c1ccccc1Oc1cc(Oc2ccccc2C#N)ncn1 [azoxystrobin]
CDM Obsd (disease control rating) ([1]; component (b) alone 0.08 ppm): 64%
CDM Obsd (disease control rating) ([1]; component (b) alone 0.4 ppm): 80%
CDM Obsd (disease control rating) ([1]; component (b) alone 2 ppm): 100%
CDM Obsd (disease control rating) ([1]; component (b) alone 10 ppm): 100%
CDM Obsd (disease control rating) ([1]; component (b) alone 40 ppm): 100%
CDM Obsd ([1]; component (b) alone 0.08 ppm (Compound 1 0 ppm)): 26%
CDM Obsd ([1]; component (b) alone 0.4 ppm (Compound 1 0 ppm)): 40%
CDM Obsd [1, 17]: 100%
CDM Obsd [1, 18]: 100%
CDM Obsd [1, 19]: 100%
CDM Obsd (observed effect, cucumber downy mildew) ([1]; component (b) alone, 0.4 ppm): 0
CDM Obsd (observed effect, cucumber downy mildew) ([1]; component (b) alone, 2 ppm): 70
CDM Obsd (observed effect, cucumber downy mildew) ([1]; component (b) alone, 10 ppm): 100
CDM Obsd (observed effect, cucumber downy mildew) ([1]; component (b) alone, 40 ppm): 100
TLB Obsd (disease control rating) ([2]; component (b) alone 0.08 ppm): 0%
TLB Obsd (disease control rating) ([2]; component (b) alone 0.4 ppm): 16%
TLB Obsd (disease control rating) ([2]; component (b) alone 2 ppm): 26%
TLB Obsd (disease control rating) ([2]; component (b) alone 10 ppm): 58%
TLB Obsd (disease control rating) ([2]; component (b) alone 40 ppm): 99%
TLB Obsd (observed effect, tomato late blight) ([2]; component (b) alone, 0.4 ppm): 29
TLB Obsd (observed effect, tomato late blight) ([2]; component (b) alone, 2 ppm): 56
TLB Obsd (observed effect, tomato late blight) ([2]; component (b) alone, 10 ppm): 90
TLB Obsd (observed effect, tomato late blight) ([2]; component (b) alone, 40 ppm): 100

CC(C)[C@H](NC(=O)O)C(=O)N[C@H](C)c1nc2ccc(F)cc2s1 [benthiavalicarb]
CDM Obsd (observed effect, cucumber downy mildew) ([1]; component (b) alone, 0.08 ppm): 0
CDM Obsd (observed effect, cucumber downy mildew) ([1]; component (b) alone, 0.4 ppm): 75
CDM Obsd (observed effect, cucumber downy mildew) ([1]; component (b) alone, 2 ppm): 100
CDM Obsd (observed effect, cucumber downy mildew) ([1]; component (b) alone, 10 ppm): 100
CDM Obsd (observed effect, cucumber downy mildew) ([1]; component (b) alone, 40 ppm): 100
TLB Obsd (observed effect, tomato late blight) ([2]; component (b) alone, 0.08 ppm): 21
TLB Obsd (observed effect, tomato late blight) ([2]; component (b) alone, 0.4 ppm): 82
TLB Obsd (observed effect, tomato late blight) ([2]; component (b) alone, 2 ppm): 100
TLB Obsd (observed effect, tomato late blight) ([2]; component (b) alone, 10 ppm): 100
TLB Obsd (observed effect, tomato late blight) ([2]; component (b) alone, 40 ppm): 100

O=C(Nc1ccccc1-c1ccc(Cl)cc1)c1cccnc1Cl [boscalid]
pest or weed control at 0.4 ppm ([1]; Pseudoperonospora cubensis, Table A, component (b) alone 0.4 ppm, read-out: CDM Obsd (disease control rating)): 47%
pest or weed control at 2 ppm ([1]; Pseudoperonospora cubensis, Table A, component (b) alone 2 ppm, read-out: CDM Obsd (disease control rating)): 47%
pest or weed control at 10 ppm ([1]; Pseudoperonospora cubensis, Table A, component (b) alone 10 ppm, read-out: CDM Obsd (disease control rating)): 47%
pest or weed control at 40 ppm ([1]; Pseudoperonospora cubensis, Table A, component (b) alone 40 ppm, read-out: CDM Obsd (disease control rating)): 47%
pest or weed control at 200 ppm ([1]; Pseudoperonospora cubensis, Table A, component (b) alone 200 ppm, read-out: CDM Obsd (disease control rating)): 47%
pest or weed control at 0.4 ppm ([1]; Pseudoperonospora cubensis, Table G, component (b) alone at 0.4 ppm, read-out: CDM Obsd): 47%
pest or weed control at 2 ppm ([1]; Pseudoperonospora cubensis, Table G, component (b) alone at 2 ppm, read-out: CDM Obsd): 47%
pest or weed control at 10 ppm ([1]; Pseudoperonospora cubensis, Table G, component (b) alone at 10 ppm, read-out: CDM Obsd): 26%
pest or weed control at 40 ppm ([1]; Pseudoperonospora cubensis, Table G, component (b) alone at 40 ppm, read-out: CDM Obsd): 26%
pest or weed control at 200 ppm ([1]; Pseudoperonospora cubensis, Table G, component (b) alone at 200 ppm, read-out: CDM Obsd): 26%
pest or weed control at 0.04 ppm [1, 3]: 68%
pest or weed control at 2 ppm [1, 4]: 0%
pest or weed control at 10 ppm [1, 5]: 0%
pest or weed control at 40 ppm [1, 6]: 0%
pest or weed control at 200 ppm [1, 7]: 0%
pest or weed control at 0.4 ppm ([2]; read-out: TLB Obsd (disease control rating), Table A, component (b) alone 0.4 ppm): 9%
pest or weed control at 2 ppm ([2]; read-out: TLB Obsd (disease control rating), Table A, component (b) alone 2 ppm): 17%
pest or weed control at 10 ppm ([2]; read-out: TLB Obsd (disease control rating), Table A, component (b) alone 10 ppm): 17%
pest or weed control at 40 ppm ([2]; read-out: TLB Obsd (disease control rating), Table A, component (b) alone 40 ppm): 17%
pest or weed control at 200 ppm ([2]; read-out: TLB Obsd (disease control rating), Table A, component (b) alone 200 ppm): 9%
pest or weed control at 0.04 ppm [2]: 25%
pest or weed control at 2 ppm [2, 8]: 0%
pest or weed control at 10 ppm [2, 9]: 0%
pest or weed control at 40 ppm [2, 10]: 17%
pest or weed control at 200 ppm [2, 11]: 32%
